# In publication PMC5546207 (Cancer discovery, 2017):
# Where two headings read alike, the source gives them in different places.
# Key:
# Plasma pharmacokinetics = assay type: in vivo, human; conditions: for AUC / Cmax / Tmax: human, plasma, oral; for AUC: AUCtau [mean ± standard deviation]; for Cmax: Cmax [mean ± standard deviation]; for Tmax: Tmax [median (range)]
# patients = conditions: cited from earlier work; for incidence of hyperglycemia: single agent
# [1] = 300 mg alpelisib at steady state, triple combination
# [2] = 200 mg encorafenib at steady state, dual combination
# [3] = 200 mg encorafenib in the presence of 300 mg alpelisib, steady state, triple combination
Structure (SMILES),AUC (Plasma pharmacokinetics; [1]),Cmax (Plasma pharmacokinetics; [1]),exposure affected by encorafenib and cetuximab (Plasma pharmacokinetics; triple-combination therapy group),"incidence of hyperglycemia (patients; all grade, patients with solid tumors)","incidence of hyperglycemia (patients; grade 3/4, patients with solid tumors)",exposure vs dual-combination therapy group (Plasma pharmacokinetics; 200 mg encorafenib in the presence of 100 mg alpelisib),drug–drug interaction between encorafenib and cetuximab (Plasma pharmacokinetics; dual-combination therapy group),AUC (Plasma pharmacokinetics; [2]),AUC (Plasma pharmacokinetics; [3]),Cmax (Plasma pharmacokinetics; [2]),Cmax (Plasma pharmacokinetics; [3]),Tmax (Plasma pharmacokinetics; [2]),Tmax (Plasma pharmacokinetics; [3]),single agent MTD/RP2D (patients; first-in-human study)
Cc1nc(NC(=O)N2CCC[C@H]2C(N)=O)sc1-c1ccnc(C(C)(C)C(F)(F)F)c1 [alpelisib],25100 ng·h/mL,2740 ± 520 ng/mL,not affected,47%,24%,–,–,–,–,–,–,–,–,–
COC(=O)N[C@@H](C)CNc1nccc(-c2cn(C(C)C)nc2-c2cc(Cl)cc(NS(C)(=O)=O)c2F)n1 [encorafenib],–,–,–,–,–,similar,No evidence of drug–drug interaction,7170 ± 2890 ng·h/mL,12900 ng·h/mL,1430 ± 824 ng/mL,2390 ± 2080 ng/mL,2 h,3 h,450 mg
